Where two headings read alike, the source gives them in different places.

For one data set, the system named is HCT 116 cells. Briefly: cells. Conditions: for GI50: read-out: HCT116 GI50; for CC50: read-out: HCT116 LC50. How it is done: (§1) Experimental drugs are screened for anti-cancer activity in three cell lines for their GI50, TGI and LC50 values (using five concentrations for each compound). The cell lines are maintained in DMEM containing 10% fetal bovine serum. 96 well micro titer plates are inoculated with cells in 100 μL for 24 h at 37° C., 5% CO2, 95% air and 100% relative humidity. 5000 HCT 116 cells/well, 5000 NCIH 460 cells/well and 5000 U251 cells/well are plated. A separate plate with these cell lines is also inoculated to determine cell viability before the addition of the compounds (T0) (See Table I).
(§2) Following 24-hour incubation, experimental drugs are added to the 96 well plates. Each plate contains one of the above cell lines and the following in triplicate: five different concentrations (0.01, 0.1, 1, 10 and 100 μM) of four different compounds, appropriate dilutions of a cytotoxic standard and control (untreated) wells. Compounds are dissolved in DMSO to make 20 mM stock solutions on the day of drug addition and frozen at −20° C. Serial dilutions of these 20 mM stock solutions are made in complete growth medium such that 100 μL of these drug solutions in medium, of final concentrations equaling 0.01, 0.1, 1, 10 and 100 μM can be added to the cells in triplicate. […] (See Table I).
(§3) For T0 measurement, 24 hours after seeding the cells, 10 μL of 3-(4,5-Dimethyl-2-thiazolyl)-2,5-diphenyl-2H-tetrazolium (MTT) solution per well is added and incubation carried out for 3 hours at 37° C., 5% CO2, 95% air and 100% relative humidity, protected from light. Cells incubated with compounds for 48 hours are treated similarly except with the addition of 20 μL MTT solution per well and a subsequent incubation under the same conditions. After 3 hours of MTT incubation, well contents are aspirated carefully followed by addition of 150 μL DMSO per well. Plates are agitated to ensure solution of the formazan crystals in DMSO and absorbance read at 570 nm. (See Table I).
(§4) Percent growth is calculated for each compound's concentration relative to the control and zero measurement wells (T0; viability right before compound addition).
(§5) If a test well's O.D. value is lower than the T0 measurement for that cell line, then, % Growth=(test−zero)/zero×100

Data set [1] deals with MDAMB231/U251. Briefly: cells. To be noted: 48 h; for GI50: read-out: MDAMB231/U251 GI50. As for the experimental part:
as §1, §2, §3, §4, §5

The subject of the next data set is NCIH 460 cells. Description: cells. Conditions: for GI50: read-out: NCIH460 GI50; for CC50: read-out: NCIH460 LC50. As for the experimental part:
as §1, §2, §3, §4, §5

In data set [2] the test system is NCIH460, HCT116, MDAMB231/U251. Description: Anti-cancer screen, mean GI50 over the cell lines. The class given is cell-based. Conditions: mean over the three cell lines; no unit in table. As for the experimental part:
as §1, §2, §3
Percent growth is calculated for each compound's concentration relative to the control and zero measurement wells (T0; viability right before compound addition). […]

Data set [3] concerns MDAMB231/U251. Briefly: cells. To be noted: 48 h, read-out: MDAMB231/U251 LC50.
Where [4] appears, read: HCT116, MTT, 48 h, tested at 0.01-100 μM, no unit in table.
Where [5] appears, read: MDAMB231/U251, MTT, tested at 0.01-100 μM, no unit in table.
Where [6] appears, read: NCIH460, MTT, 48 h, tested at 0.01-100 μM, no unit in table.

For the compound `O=C(CCCCCNC(=O)/C(=C\c1cc(F)cc(F)c1F)c1ccc([N+](=O)[O-])cc1)NO` [Example 27, (2Z)-3-(2,3,5-Trifluorophenyl)-2-(4-nitrophenyl)-N-[6-(hydroxyamino)-6-oxohexyl]acrylamide], the GI50 in the data set with HCT 116 cells (Homo sapiens, HCT-116, 48 h) is 7 µM; with MDAMB231/U251 [1] it was 7.5 µM; in the data set with NCIH 460 cells (Homo sapiens, NCI-H460, 48 h), 30 µM; in data set [2], 14.8 µM. In addition, the CC50 is above 100 µM in the data set with HCT 116 cells (Homo sapiens, HCT-116, 48 h); 96 µM in the data set on NCIH 460 cells (Homo sapiens, NCI-H460, 48 h); 82 µM in the data set on MDAMB231/U251 [3].
For the compound `COc1ccc(/C=C(\C(=O)NCCCCCC(=O)NO)c2ccccc2)cc1` [Example 29, (2Z)-3-(4-Methoxyphenyl)-2-(phenyl)-N-[6-(hydroxyamino)-6-oxohexyl]acrylamide], the GI50 was found to be 5 µM with HCT 116 cells (Homo sapiens, HCT-116, 48 h); 6 µM in the data set with MDAMB231/U251 [1]; 28 µM in the data set with NCIH 460 cells (Homo sapiens, NCI-H460, 48 h); 13 µM in data set [2]. Also, the CC50 with HCT 116 cells (Homo sapiens, HCT-116, 48 h) came out at 78 µM; with NCIH 460 cells (Homo sapiens, NCI-H460, 48 h), 89 µM; with MDAMB231/U251 [3], 90 µM.
Turning to `O=C(CCCCCNC(=O)/C(=C\c1ccc(F)c(F)c1)c1ccc(F)cc1)Nc1nccs1` [Example 36], the GI50 in the data set with HCT 116 cells (Homo sapiens, HCT-116, 48 h) was above 100 µM; in the data set on MDAMB231/U251 [1] it was 0.2 µM; in the data set with NCIH 460 cells (Homo sapiens, NCI-H460, 48 h), 2 µM; in data set [2] it was 1.1 µM. In addition, the CC50 in the data set on HCT 116 cells (Homo sapiens, HCT-116, 48 h) is above 100 µM; in the data set on NCIH 460 cells (Homo sapiens, NCI-H460, 48 h), above 100 µM; with MDAMB231/U251 [3], above 100 µM.
Take `Cc1cc(/C=C(\C(=O)NCCCCCC(=O)NO)c2ccc(F)cc2)ccc1F` [Example 45, (2Z)-3-(4-Fluoro-3-methylphenyl)-2-(4-fluorophenyl)-N-[6-(hydroxyamino)-6-oxohexyl]acrylamide]: the GI50 with HCT 116 cells (Homo sapiens, HCT-116, 48 h) stood at 6.8 µM; with MDAMB231/U251 [1], 5 µM; in the data set on NCIH 460 cells (Homo sapiens, NCI-H460, 48 h) it was 16 µM; in data set [2], 9.3 µM. Moreover, the CC50 with HCT 116 cells (Homo sapiens, HCT-116, 48 h) is 73 µM; in the data set on NCIH 460 cells (Homo sapiens, NCI-H460, 48 h) it was 89 µM; in the data set on MDAMB231/U251 [3], above 100 µM.
For the compound `CSc1ccc(/C=C(\C(=O)NCCCCCC(=O)NOCc2ccccc2)c2ccc(F)cc2)cc1` [Example 51, (2Z)-3-(4-Thiomethylphenyl)-2-(4-fluorophenyl)-N-[6-(O-benzyl hydroxyamino)-6-oxohexyl]acrylamide], in the data set on HCT 116 cells (setting [4]), the “HCT116 TGI” value stood at 65, the GI50 was found to be 10 µM and the CC50 came out at 84 µM. In the data set on MDAMB231/U251 [1] (setting [5]), the “MDAMB231/U251 TGI” value came to 35 and the GI50 stood at 9.6 µM. Moreover, in the data set on MDAMB231/U251 [1] (read-out: MDAMB231/U251 LC50, MDAMB231/U251, MTT, tested at 0.01-100 μM, no unit in table), the CC50 came out at 86 µM. Further, in the data set on NCIH 460 cells (setting [6]), the “NCIH460 TGI” value is on record as 80, the GI50 worked out at 30 µM and the CC50 was above 100 µM. The same compound registered a GI50 in data set [2] of 16.5 µM.
